Measured values as given in US9850247B2 (Almac Discovery Limited, priority 2013, dated 2017).

Molecular target: T1, human ether a go-go related gene (hERG) K′ channel (Homo sapiens, UniProt Q12809)
T1 construct: Essen BioScience
Test: hERG activity, IonWorks patch clamp electrophysiology (Method 6)
Type: cell-based
Settings: not given
Protocol: Method 6: Determination of hERG Activity
Compounds were tested for inhibition of the human ether a go-go related gene (hERG) K′ channel using IonWorks patch clamp electrophysiology at Essen BioScience. 8-Point concentration-response curves of the effect of compound on hERG current as a percentage of pre-compound signal were generated using 3-fold serial dilutions from 11 μM and results are reported as IC50 in μM.

T1 sequence (Q12809 whole entry): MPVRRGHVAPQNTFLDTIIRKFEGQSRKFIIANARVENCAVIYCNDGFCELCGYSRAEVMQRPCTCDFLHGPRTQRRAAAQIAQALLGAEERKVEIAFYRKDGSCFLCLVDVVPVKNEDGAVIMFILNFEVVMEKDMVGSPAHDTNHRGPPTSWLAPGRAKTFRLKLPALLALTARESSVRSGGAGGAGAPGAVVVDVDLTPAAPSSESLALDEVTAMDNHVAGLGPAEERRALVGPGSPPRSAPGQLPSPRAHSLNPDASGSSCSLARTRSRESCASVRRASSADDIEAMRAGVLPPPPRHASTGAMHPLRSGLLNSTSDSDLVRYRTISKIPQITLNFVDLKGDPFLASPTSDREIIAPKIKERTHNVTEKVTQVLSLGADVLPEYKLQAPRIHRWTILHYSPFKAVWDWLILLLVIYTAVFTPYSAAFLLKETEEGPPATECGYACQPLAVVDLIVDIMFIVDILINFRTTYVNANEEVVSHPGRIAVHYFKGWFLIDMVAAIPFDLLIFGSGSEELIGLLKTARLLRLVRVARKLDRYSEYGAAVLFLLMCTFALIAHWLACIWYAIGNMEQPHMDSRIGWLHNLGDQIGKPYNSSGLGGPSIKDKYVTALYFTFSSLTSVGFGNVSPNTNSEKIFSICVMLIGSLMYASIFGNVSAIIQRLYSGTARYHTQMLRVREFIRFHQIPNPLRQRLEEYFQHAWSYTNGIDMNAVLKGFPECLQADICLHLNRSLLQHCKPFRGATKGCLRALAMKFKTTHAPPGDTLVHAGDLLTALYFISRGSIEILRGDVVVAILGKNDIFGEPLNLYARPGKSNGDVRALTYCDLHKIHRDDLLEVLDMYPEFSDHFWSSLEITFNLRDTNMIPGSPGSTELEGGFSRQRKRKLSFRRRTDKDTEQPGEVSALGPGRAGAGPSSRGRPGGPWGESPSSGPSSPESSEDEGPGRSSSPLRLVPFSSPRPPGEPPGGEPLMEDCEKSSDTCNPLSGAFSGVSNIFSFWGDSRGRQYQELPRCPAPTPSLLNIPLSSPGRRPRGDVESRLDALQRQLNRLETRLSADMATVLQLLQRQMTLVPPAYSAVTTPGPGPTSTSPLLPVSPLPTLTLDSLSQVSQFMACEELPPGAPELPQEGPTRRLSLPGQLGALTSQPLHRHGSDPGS

| SMILES | IC50 |
| --- | --- |
| C[C@@H]1CN(c2ccc(Nc3ncc4c(n3)N(C)CN(c3c(Cl)cccc3Cl)C4=O)cc2)CCN1 [Example 16, (R)-3-(2,6-Dichlorophenyl)-1-methyl-7-((4-(3-methylpiperazin-1-yl)phenyl)amino)-2,3-dihydropyrimido[4,5-d]pyrimidin-4(1H)-one] | > 10 µM |

Same assay, conditions: versus analogues from WO2013126656, WO2013013031 and WO2013059485

| SMILES | hERG inhibition compared with prior art analogues |
| --- | --- |
| CNCc1cc(Nc2ncc3c(n2)N(C)CN(c2c(Cl)cccc2Cl)C3=O)ccc1N1CCOCC1 [Example 5, 3-(2,6-Dichlorophenyl)-1-methyl-7-((3-((methylamino)methyl)-4-morpholinophenyl)amino)-2,3-dihydropyrimido[4,5-d]pyrimidin-4(1H)-one] | lower hERG inhibition |

System: phospho-cdc2 (Tyr15) in HT-29 cells
Test: Effect on phosphorylation of cdc2 at Tyr15, PathScan ELISA (Method 2)
Type: cell-based
Settings: Homo sapiens, 8 h, eight hours incubation, read-out: HT29 pCDC2 method 2
Protocol: Method 2: Determining the Effect of Compounds on the phosphorylation of cdc2 at Tyr15
The colorectal cancer cell lines HT-29 and HCT-116 were purchased from the ATCC and routinely maintained in McCoy's Medium (Invitrogen) supplemented with 10% Foetal Calf Serum.
The cells were trypsinised from their growing vessel and counted, 100 μL of cell suspension containing 6000 cells was pipetted into black 96 well Co-star plates and incubated overnight to allow adherence to the surface at a temperature of 37° C. and an atmosphere of 5% CO2. Test compounds were formulated in DMSO and diluted in foetal calf serum supplemented medium. Incubating medium was removed by aspiration and diluted drug supplemented medium added to each well.
The plate was returned to the incubator for an additional eight hours at 37° C. and an atmosphere of 5% CO2. Post incubation, the drug supplemented medium was aspirated from each well and the cells were washed once in ice-cold phosphate buffered saline (PBS). 100 μL of cell lysis buffer (Cell Signalling Technologies #9803) containing 20 mM Tris, 150 mM NaCl, 1 mM EDTA, 1 mM EGTA, 1% Triton-X100, 2.5 mM sodium pyrophosphate, 1 mM glycerophosphate, 1 mM Na3VO4 and 1 μg/mL leupeptin was added to each well of the 96 well plate and incubated at 4° C. for 30 min. The samples on the plate were snap frozen at −80° C. until required. Immediately before the continuation of the assay, the sample plate was thawed and centrifuged at 4° C. for 10 min and the supernatant transferred to secondary tubes or 96 well plate.
Cell supernatant was mixed in a ratio of 1:1 with sample dilutent buffer and vortexed for one minute. 100 μL of diluted sample was pipetted into pre-coated plates containing a rabbit polyclonal antibody for phospho-cdc2 (Tyr15) (Cell Signalling Technologies PathScan kit #7176). The plate was sealed and incubated overnight at 4° C.
The plate seal was removed and the well contents aspirated, followed by 3×5 min washes with 200 μL of diluted wash buffer. Between each wash the plate was tapped firmly onto blotting paper to ensure the removal of all kit solution. 100 μL of kit detection antibody was added to each well and the plate re-sealed and incubated at 37° C. for 1 h. Post incubation the plate was washed and processed in a similar manner to that previously described.
100 μL of horseradish peroxidise-linked secondary antibody was added to each test well, the plate sealed and incubated for thirty minutes at 37° C. Post incubation, the plate was washed as previously stated, followed by the addition of 100 μL of 3,3′,5,5′ tetramethylbenzidine (TMB reagent). The plate was sealed and incubated at RT for 30 min.
100 μL of stop solution was added to each well and the underside of the plate wiped with a lint-free tissue, prior to spectrophotometric determination. Absorbance from each well was read at 450 nm within 30 min of the addition of the stop solution.
The percentage of phospho-cdc2 was calculated compared to DMSO control and plotted versus the concentration of inhibitor using GraphPad Prism. Data was fitted using non-linear regression analysis and IC50 values generated.

| SMILES | IC50 |
| --- | --- |
| COc1cc(Nc2ncc3c(n2)N(C)CN(c2c(Cl)cccc2Cl)C3=O)ccc1N1CCNCC1 [Example 3, 3-(2,6-Dichlorophenyl)-7-((3-methoxy-4-(piperazin-1-yl)phenyl)amino)-1-methyl-2,3-dihydropyrimido[4,5-d]pyrimidin-4(1H)-one] | 0.1 to 1 µM |
| C[C@@H]1CN(c2ccc(Nc3ncc4c(n3)N(C)CN(c3c(Cl)cccc3Cl)C4=O)cc2F)CCN1 [Example 43, (R)-3-(2,6-dichlorophenyl)-7-((3-fluoro-4-(3-methylpiperazin-1-yl)phenyl)amino)-1-methyl-2,3-dihydropyrimido[4,5-d]pyrimidin-4(1H)-one] | 0.1 to 1 µM |
| C[C@@H]1CN(c2ccc(Nc3ncc4c(n3)N(C)CN(c3c(F)cccc3Cl)C4=O)cc2)CCN1 [Example 53, (R)-3-(2-chloro-6-fluorophenyl)-1-methyl-7-((4-(3-methylpiperazin-1-yl)phenyl)amino)-2,3-dihydropyrimido[4,5-d]pyrimidin-4(1H)-one] | ≤ 0.1 µM |
| CC(C)N1CCN(c2ccc(Nc3ncc4c(n3)N(C)CN(c3c(Cl)cccc3Cl)C4=O)cc2CO)CC1 [Example 21, 3-(2,6-Dichlorophenyl)-7-((3-(hydroxymethyl)-4-(4-isopropylpiperazin-1-yl)phenyl)amino)-1-methyl-2,3-dihydropyrimido[4,5-d]pyrimidin-4(1H)-one] | ≤ 0.1 µM |
| CN1CN(c2c(Cl)cccc2Cl)C(=O)c2cnc(Nc3ccc(N4CC5CCC(C4)N5)cc3)nc21 [Example 74, 7-((4-(3,8-diazabicyclo[3.2.1]octan-3-yl)phenyl)amino)-3-(2,6-dichlorophenyl)-1-methyl-2,3-dihydropyrimido [4,5-d]pyrimidin-4(1H)-one] | 0.1 to 1 µM |
| CNCc1cc(Nc2ncc3c(n2)N(C)CN(c2c(Cl)cccc2Cl)C3=O)ccc1N1CCOCC1 [Example 5, 3-(2,6-Dichlorophenyl)-1-methyl-7-((3-((methylamino)methyl)-4-morpholinophenyl)amino)-2,3-dihydropyrimido[4,5-d]pyrimidin-4(1H)-one] | 0.1 to 1 µM |
| CN1CN(c2c(Cl)cccc2Cl)C(=O)c2cnc(Nc3ccc(N4CCN[C@@H](CO)C4)cc3)nc21 [Example 19, (R)-3-(2,6-Dichlorophenyl)-7-((4-(3-(hydroxymethyl)piperazin-1-yl)phenyl)amino)-1-methyl-2,3-dihydropyrimido[4,5-d]pyrimidin-4(1H)-one] | 0.1 to 1 µM |
| C[C@H]1CN(c2ccc(Nc3ncc4c(n3)N(C)CN(c3c(Cl)cccc3Cl)C4=O)cc2)CCN1 [Example 17, (S)-3-(2,6-Dichlorophenyl)-1-methyl-7-((4-(3-methylpiperazin-1-yl)phenyl)amino)-2,3-dihydropyrimido[4,5-d]pyrimidin-4(1H)-one] | ≤ 0.1 µM |
| CN1CN(c2c(Cl)cccc2Cl)C(=O)c2cnc(Nc3ccc(N4CC5CCC(C4)N5C)c(CO)c3)nc21 [Example 86, 3-(2,6-dichlorophenyl)-7-((3-(hydroxymethyl)-4-(8-methyl-3,8-diazabicyclo[3.2.1]octan-3-yl)phenyl)amino)-1-methyl-2,3-dihydropyrimido[4,5-d]pyrimidin-4(1H)-one] | ≤ 0.1 µM |
| CNCCOc1ccc(Nc2ncc3c(n2)N(C)CN(c2c(Cl)cccc2Cl)C3=O)cc1 [Example 2, 3-(2,6-Dichlorophenyl)-1-methyl-7-((4-(2-(methylamino)ethoxy)phenyl)amino)-2,3-dihydropyrimido[4,5-d]pyrimidin-4(1H)-one] | 0.1 to 1 µM |
| C[C@@H]1CN(c2ccc(Nc3ncc4c(n3)N(C)CN(c3c(Cl)cccc3Cl)C4=O)cc2)CCN1 [Example 16, (R)-3-(2,6-Dichlorophenyl)-1-methyl-7-((4-(3-methylpiperazin-1-yl)phenyl)amino)-2,3-dihydropyrimido[4,5-d]pyrimidin-4(1H)-one] | ≤ 0.1 µM |
| CN1CN(c2c(F)cccc2Cl)C(=O)c2cnc(Nc3ccc(N4CCNCC4)cc3)nc21 [Example 25, 3-(2-Chloro-6-fluorophenyl)-1-methyl-7-((4-(piperazin-1-yl)phenyl)amino)-2,3-dihydropyrimido[4,5-d]pyrimidin-4(1H)-one] | ≤ 0.1 µM |
| CN1CCc2ccc(Nc3ncc4c(n3)N(C)CN(c3c(Cl)cccc3Cl)C4=O)cc2C1 [Example 22, 3-(2,6-Dichlorophenyl)-1-methyl-7-((2-methyl-1,2,3,4-tetrahydroisoquinolin-7-yl)amino)-2,3-dihydropyrimido[4,5-d]pyrimidin-4(1H)-one] | ≤ 0.1 µM |
| Cc1cc(Nc2ncc3c(n2)N(C)CN(c2c(Cl)cccc2Cl)C3=O)ccc1C1CCNCC1 [Example 18, 3-(2,6-Dichlorophenyl)-1-methyl-7-((3-methyl-4-(piperidin-4-yl)phenyl)amino)-2,3-dihydropyrimido[4,5-d]pyrimidin-4(1H)-one] | 0.1 to 1 µM |
| C[C@@H]1CN(c2ccc(Nc3ncc4c(n3)N(C)CN(c3c(Cl)cccc3Cl)C4=O)cc2)[C@@H](C)CN1 [Example 80, 3-(2,6-dichlorophenyl)-7-((4-((2S,5R)-2,5-dimethylpiperazin-1-yl)phenyl)amino)-1-methyl-2,3-dihydropyrimido[4,5-d]pyrimidin-4(1H)-one] | ≤ 0.1 µM |

Further lines, results first:

| IC50 | SMILES |
| --- | --- |
| 0.1 to 1 µM | CN1CN(c2c(Cl)cccc2Cl)C(=O)c2cnc(Nc3ccc(N4CCN(C(=O)CN)CC4)cc3)nc21 [Example 13, 7-((4-(4-(2-Aminoacetyl)piperazin-1-yl)phenyl)amino)-3-(2,6-dichlorophenyl)-1-methyl-2,3-dihydropyrimido[4,5-d]pyrimidin-4(1H)-one] |
| 0.1 to 1 µM | COCc1cc(Nc2ncc3c(n2)N(C)CN(c2c(Cl)cccc2Cl)C3=O)ccc1N1CCNCC1 [Example 31, 3-(2,6-dichlorophenyl)-7-((3-(methoxymethyl)-4-(piperazin-1-yl)phenyl)amino)-1-methyl-2,3-dihydropyrimido[4,5-d]pyrimidin-4(1H)-one] |
| 0.1 to 1 µM | COCc1cc(Nc2ncc3c(n2)N(C)CN(c2c(Cl)cccc2Cl)C3=O)ccc1N1CCN[C@H](C)C1 [Example 59, (R)-3-(2,6-dichlorophenyl)-7-((3-(methoxymethyl)-4-(3-methylpiperazin-1-yl)phenyl)amino)-1-methyl-2,3-dihydropyrimido[4,5-d]pyrimidin-4(1H)-one] |
| ≤ 0.1 µM | C[C@@H]1CN[C@@H](C)CN1c1ccc(Nc2ncc3c(n2)N(C)CN(c2c(Cl)cccc2Cl)C3=O)cc1 [Example 40, 3-(2,6-dichlorophenyl)-7-((4-((2R,5S)-2,5-dimethylpiperazin-1-yl)phenyl)amino)-1-methyl-2,3-dihydropyrimido[4,5-d]pyrimidin-4(1H)-one] |
| ≤ 0.1 µM | COC[C@H]1CN(c2ccc(Nc3ncc4c(n3)N(C)CN(c3c(Cl)cccc3Cl)C4=O)cc2)CCN1 [Example 60, (R)-3-(2,6-dichlorophenyl)-7-((4-(3-(methoxymethyl)piperazin-1-yl)phenyl)amino)-1-methyl-2,3-dihydropyrimido[4,5-d]pyrimidin-4(1H)-one] |
| 0.1 to 1 µM | CN1CN(c2c(Cl)cccc2Cl)C(=O)c2cnc(Nc3ccc(N4CCNCC4)c(C#N)c3)nc21 [Example 11, 3-(2,6-Dichlorophenyl)-7-((3-cyano-4-(piperazin-1-yl)phenyl)amino)-1-methyl-2,3-dihydropyrimido[4,5-d]pyrimidin-4(1H)-one] |
| ≤ 0.1 µM | [2H]C1([2H])N(C)c2nc(Nc3ccc(N4CCNCC4)cc3)ncc2C(=O)N1c1c(Cl)cccc1Cl [Example 15, 3-(2,6-Dichlorophenyl)-2,2-dideutero-1-methyl-7-((4-(piperazin-1-yl)phenyl)amino)-2,3-dihydropyrimido[4,5-d]pyrimidin-4(1H)-one] |
| ≤ 0.1 µM | CN1CN(c2c(Cl)cccc2Cl)C(=O)c2cnc(Nc3ccc4c(c3)CNCC4)nc21 [Example 14, 3-(2,6-Dichlorophenyl)-1-methyl-7-((1,2,3,4-tetrahydroisoquinolin-7-yl)amino)-2,3-dihydropyrimido[4,5-d]pyrimidin-4(1H)-one] |
